# From patent US8952024B2, “Herbicidal pyrimidone derivatives” (E I du Pont de Nemours and Company, priority 2009, dated 2015)
# Assays:
# Assay type in all cases: in vivo
# [1] = test system: Russian thistle (Salsola kali); assay: Test B pre-/postemergence plant response; settings: Preemergence
# Method in brief: (§1)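 Pre-em in loam/sand; post-em at 1–4 leaf (2–18 cm) in peat mix. Solvent + surfactant formulation. Greenhouse 13–15 d; visual % control vs untreated, 0–100.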
# [2] = test system: nightshade (eastern black nightshade, Solanum ptycanthum); assay: Test B pre-/postemergence plant response; settings: Preemergence
# Method in brief: as §1
# [3] = test system: sunflower (common oilseed sunflower, Helianthus annuus); assay: Test B pre-/postemergence plant response; settings: Preemergence
# Method in brief: as §1
# [4] = test system: galium (catchweed bedstraw, Galium aparine); assay: Test B pre-/postemergence plant response; settings: Preemergence
# Method in brief: as §1
# [5] = test system: Italian ryegrass (Lolium multiflorum); assay: Test D pre-/postemergence plant response
# Method in brief: (§2)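 Ratings come from greenhouse-grown weeds in loam and sand treated pre- or postemergence (postemergence height 2 to 18 cm). Evaluation after 14–21 days, visual, relative to controls, on a 0–100 control scale.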
# [6] = test system: field bindweed (Convolvulus arvensis); assay: Test D pre-/postemergence plant response
# Method in brief: as §2
# [7] = test system: prickly sida (Sida spinosa); assay: Test D pre-/postemergence plant response
# Method in brief: as §2
# [8] = test system: sandbur (southern sandbur, Cenchrus echinatus); assay: Test D pre-/postemergence plant response
# Method in brief: as §2
# [9] = test system: quackgrass (Elytrigia repens); assay: Test D pre-/postemergence plant response
# Method in brief: as §2
# [10] = test system: large crabgrass (Digitaria sanguinalis); assay: Test D pre-/postemergence plant response
# Method in brief: as §2
# [11] = test system: morningglory (pitted morningglory, Ipomoea lacunosa); assay: Test D pre-/postemergence plant response
# Method in brief: as §2
# [12] = test system: black mustard (Brassica nigra); assay: Test D pre-/postemergence plant response
# Method in brief: as §2
# [13] = 31 g ai/ha, scale 0 to 100 (0 no effect, 100 complete control)
# [14] = 62 g ai/ha, scale 0 to 100 (0 no effect, 100 complete control)
# [15] = 125 g ai/ha, scale 0 to 100, 0 no effect, 100 complete control
# [16] = Postemergence, 31 g ai/ha, scale 0 to 100
# [17] = Postemergence, 62 g ai/ha, scale 0 to 100 (0 no effect, 100 complete control)
# [18] = Postemergence, 125 g ai/ha, scale 0 to 100 (0 no effect, 100 complete control)
# [19] = Postemergence, 250 g ai/ha, scale 0 to 100 (0 no effect, 100 complete control)
# [20] = Preemergence, 125 g ai/ha, scale 0 to 100
# [21] = Preemergence, 250 g ai/ha, scale 0 to 100
# [22] = Preemergence, 62 g ai/ha, scale 0 to 100
smiles,measurement,setting,value
"COCCn1c(-c2cc(F)cc(F)c2)ncc(C(=O)C2=C(O)C3CCC(C3)C2=O)c1=O (centres unmarked) [Compound 243, 2-(3,5-difluorophenyl)-5-[(2-hydroxy-4-oxobicyclo[3.2.1]oct-2-en-3-yl)carbonyl]-3-(2-methoxyethyl)-4(3H)-pyrimidinone]","Plant response rating, Russian Thistle",[1]; [13],100
same,"Plant response rating, Russian Thistle",[1]; [14],100
same,"Plant response rating, Russian Thistle",[1]; [15],100
same,Russian Thistle plant response rating,"[1]; 250 g ai/ha, 0 to 100 scale",100
same,"Plant response rating, Nightshade",[2]; [13],90
same,"Plant response rating, Nightshade",[2]; [14],98
same,"Plant response rating, Nightshade",[2]; [15],98
same,Nightshade plant response rating,"[2]; 250 g ai/ha, 0 to 100 scale",98
same,"Plant response rating, Sunflower",[3]; [13],80
same,"Plant response rating, Sunflower",[3]; [14],85
same,"Plant response rating, Sunflower",[3]; [15],95
same,Sunflower plant response rating,"[3]; 250 g ai/ha, 0 to 100 scale",95
same,"Plant response rating, Galium",[4]; [13],85
same,"Plant response rating, Galium",[4]; [14],90
same,"Plant response rating, Galium",[4]; [15],98
same,Galium plant response rating,"[4]; 250 g ai/ha, 0 to 100 scale",100
same,"Plant response rating, Ryegrass, Italian",[5]; [16],0
same,"Plant response rating, Ryegrass, Italian",[5]; [17],20
same,"Plant response rating, Ryegrass, Italian",[5]; [18],30
same,"Plant response rating, Ryegrass, Italian",[5]; [19],65
same,"Plant response rating, Ryegrass, Italian",[5]; [20],98
same,"Plant response rating, Ryegrass, Italian",[5]; [21],100
same,"Plant response rating, Field Bindweed",[6]; [16],65
same,"Plant response rating, Field Bindweed",[6]; [17],70
same,"Plant response rating, Field Bindweed",[6]; [18],70
same,"Plant response rating, Field Bindweed",[6]; [19],70
same,"Plant response rating, Field Bindweed",[6]; [22],100
same,"Plant response rating, Field Bindweed",[6]; [20],100
same,"Plant response rating, Field Bindweed",[6]; [21],100
same,"Plant response rating, Prickly Sida",[7]; [16],60
same,"Plant response rating, Prickly Sida",[7]; [17],65
same,"Plant response rating, Prickly Sida",[7]; [18],70
same,"Plant response rating, Prickly Sida",[7]; [19],80
same,"Plant response rating, Prickly Sida",[7]; [22],100
same,"Plant response rating, Prickly Sida",[7]; [20],100
same,"Plant response rating, Prickly Sida",[7]; [21],100
same,"Plant response rating, Sandbur",[8]; [16],75
same,"Plant response rating, Sandbur",[8]; [17],75
same,"Plant response rating, Sandbur",[8]; [18],75
same,"Plant response rating, Sandbur",[8]; [19],80
same,"Plant response rating, Sandbur",[8]; [20],100
same,"Plant response rating, Sandbur",[8]; [21],100
same,"Plant response rating, Quackgrass",[9]; [16],35
same,"Plant response rating, Quackgrass",[9]; [17],40
same,"Plant response rating, Quackgrass",[9]; [18],70
same,"Plant response rating, Quackgrass",[9]; [19],75
same,"Plant response rating, Quackgrass",[9]; [20],85
same,"Plant response rating, Quackgrass",[9]; [21],98
same,"Plant response rating, Crabgrass, Large",[10]; [16],75
same,"Plant response rating, Crabgrass, Large",[10]; [17],80
same,"Plant response rating, Crabgrass, Large",[10]; [18],85
same,"Plant response rating, Crabgrass, Large",[10]; [19],85
same,"Plant response rating, Crabgrass, Large",[10]; [22],100
same,"Plant response rating, Crabgrass, Large",[10]; [20],100
same,"Plant response rating, Crabgrass, Large",[10]; [21],100
same,"Plant response rating, Morningglory",[11]; [16],75
same,"Plant response rating, Morningglory",[11]; [17],85
same,"Plant response rating, Morningglory",[11]; [18],85
same,"Plant response rating, Morningglory",[11]; [19],85
same,"Plant response rating, Morningglory",[11]; [20],98
same,"Plant response rating, Morningglory",[11]; [21],100
same,"Plant response rating, Black Mustard",[12]; [16],50
same,"Plant response rating, Black Mustard",[12]; [17],75
same,"Plant response rating, Black Mustard",[12]; [18],98
same,"Plant response rating, Black Mustard",[12]; [19],98
same,"Plant response rating, Black Mustard",[12]; [22],100
same,"Plant response rating, Black Mustard",[12]; [20],100
same,"Plant response rating, Black Mustard",[12]; [21],100
